Patent US20120094311A1, “GENE AND PROTEIN EXPRESSION PROFILES ASSOCIATED WITH THE THERAPEUTIC EFFICACY OF EGFR-TK INHIBITORS” (priority 2007, published 2012)

System: tumor cells derived from NSCLC tumors of patients shown to be responsive to gefitinib
Assay: Xenograft array: SCID mice bearing patient-derived NSCLC tumors treated with IRESSA
Type: in vivo
Conditions: SCID mice injected with patient-derived NSCLC tumor cells; injected with 200 mg/kg of IRESSA
Experimental: Positive expression was also confirmed using a Xenograft array. To make this array, SCID mice were injected with tumor cells derived from NSCLC tumors of patients shown to be responsive to gefitinib (IRESSA®), and tumors were allowed to grow. The mice then were injected with 200 mg/kg of IRESSA®, and the mice were monitored to observe responsiveness to the drug.

SMILES: COc1cc2ncnc(Nc3ccc(F)c(Cl)c3)c2cc1OCCCN1CCOCC1 [IRESSA, gefitinib]
- tumors formed in the SCID mice after treatment: reduced or eliminated
